The term IC50 denotes the point on the concentration scale where inhibition reaches its midpoint.

We go through five compounds from patent US5387680A, “C-22 ring stabilized rapamycin derivatives” (American Home Products Corporation, priority 1993, dated 1995).

Data set [1] relates to lymphocyte proliferation (LAF); cells from the thymus of normal BALB/c mice. Description: comitogen-induced thymocyte proliferation procedure (LAF). The format is cell-based. As to conditions: read-out: LAF IC50. As for the experimental part: The immunosuppressive activities for representative compounds of this invention were evaluated in an in vitro standard pharmacological test procedure to measure lymphocyte proliferation (LAF) and in an in vivo standard pharmacological test procedure which evaluated the survival time of pinch skin grafts. […] Cells are harvested and incorporated radioactivity is determined. Inhibition of lymphoproliferation is assessed as percent change in counts per minute from non-drug treated controls. The results are expressed as an IC50.

Data set [2] is described as follows: stability in 0.1M phosphate buffer via HPLC. The format is physicochemical. As to the method:
In addition, the stability of representative compounds was tested, via HPLC, in 0.1M phosphate buffer (pH 7.4, 37° C.).

Data set [3] relates to pinch skin graft from male DBA/2 donors transplanted to male BALB/c recipients. Description: survival time of pinch skin graft. The format is in vivo, mice. To be noted: for Skin Graft (days), mean graft survival time: intraperitoneally, ± S.D. As to the method: Representative compounds of this invention were also evaluated in an in vivo test procedure designed to determine the survival time of pinch skin graft from male DBA/2 donors transplanted to male BALB/c recipients. The method is adapted from Billingham R. E. and Medawar P. B., J. Exp. Biol. 28:385-402, (1951). Briefly, a pinch skin graft from the donor is grafted on the dorsum of the recipient as a homograft, and an autograft is used as control in the same region. The recipients are treated with either varying concentrations of cyclosporin A as test control or the test compounds, intraperitoneally. Untreated recipients serve as rejection control. The graft is monitored daily and observations are recorded until the graft becomes dry and forms a blackened scab. This is considered as the rejection day. The mean graft survival time (number of days±S.D.) of the drug treatment group is compared with the control group.

The test system of data set [4] is formation of IgE-like antibodies. To be noted: cited from earlier work.
Data set [5] deals with experimental allergic encephalomyelitis model, a model for multiple sclerosis. To be noted: cited from earlier work.
For data set [6], the system named is insulin dependent diabetes mellitus. As to conditions: cited from earlier work.
Data set [7] deals with systemic lupus erythematosus. As to conditions: cited from earlier work.
Data set [8] deals with smooth muscle cell proliferation and intimal thickening following vascular injury. As to conditions: cited from earlier work.
Data set [9] concerns adjuvant arthritis model, a model for rheumatoid arthritis. To be noted: cited from earlier work.
The conditions of data set [10]: alone or in combination with picibanil; cited from earlier work.
The subject of the next data set is Candida albicans. As to conditions: particularly against Candida albicans, both in vitro and in vivo; cited from earlier work.
[11] abbreviates: BALB/c mouse thymocytes, PHA and IL-1, 72 hours.
Setting [12] is: 0.1m phosphate buffer, pH 7.4 buffer, 0.1M phosphate, 37° C., read-out: Stability (converted).

SMILES strings stand for the structures. “And” between values parts separate entries of the source, which are not always exact repeats. Identical values can stand only once. Like-named read-outs stand apart in the source and are kept apart here.

In the case of `CCC12CCCCN1C(=O)C(=O)[C@]1(O)O[C@@H](CC[C@H]1C)C[C@H](OC)/C(C)=C/C=C/C=C/[C@@H](C)C[C@@H](C)C(=O)[C@H](OC)[C@H](O)/C(C)=C/[C@@H](C)C(=O)C[C@@H]([C@H](C)C[C@@H]1CC[C@@H](O)[C@H](OC)C1)OC2=O` (stereo partly shown) [22-ethyl-rapamycin, C-22-ethyl-rapamycin], the concentration for half-maximal inhibition (IC50) in data set [1] (setting [11]) was determined as 0.14 µM.

As for `CO[C@H]1C[C@@H]2CC[C@@H](C)[C@@](O)(O2)C(=O)C(=O)N2CCCCC2(C)C(=O)O[C@H]([C@H](C)C[C@@H]2CC[C@@H](O)[C@H](OC)C2)CC(O)[C@H](C)/C=C(\C)[C@@H](O)[C@@H](OC)C(=O)[C@H](C)C[C@H](C)/C=C/C=C/C=C/1C` (stereo partly shown) [22-methyl-27-hydroxyrapamycin, C-22-methyl-C-27-hydroxy-rapamycin], in data set [2] (0.1m phosphate buffer, pH 7.4), the half-life is 21.8 h. Moreover, the concentration for half-maximal inhibition (IC50) in data set [1] (setting [11]) was 0.0099 µM.

In the case of `CO[C@H]1C[C@@H]2CC[C@@H](C)[C@@](O)(O2)C(=O)C(=O)N2CCCCC2(C)C(=O)O[C@H]([C@H](C)C[C@@H]2CC[C@@H](O)[C@H](OC)C2)CC(=O)[C@H](C)/C=C(\C)[C@@H](O)[C@@H](OC)C(=O)[C@H](C)C[C@H](C)/C=C/C=C/C=C/1C` (stereo partly shown) [22-methyl-rapamycin, C-22-methyl-rapamycin], the half-life in data set [2] (0.1M phosphate buffer, pH 7.4, 37° C., read-out: half life in stability test (converted)) was 38 h. In addition, the half-inhibitory concentration (IC50) in data set [1] (setting [11]) was determined as 0.0235 µM. Further, the “Skin Graft (days), mean graft survival time” value is 9.33 ± 0.52 days and 9.00 ± 0.63 days in data set [3] (4 mg/kg); 10.17 ± 0.55 days in [3] (*tested at 16 mg/kg). Moreover, in [3] (relative to grafts without immunosuppressive agent (rejected within 6-7 days)), the “graft survival time (in words)” value was “increased survival time”.

Consider `COC1CC2CCC(C)C(O)(O2)C(=O)C(=O)N2CCCCC2(C)C(=O)OC(C(C)CC2CCC(OC(=O)CN(C)C)C(OC)C2)CC(=O)C(C)C=C(C)C(O)C(OC)C(=O)C(C)CC(C)C=CC=CC=C1C` (stereo not shown) [C-22-methyl-42-dimethylglycine-rapamycin, C-22-methyl-42-dimethylglycine rapamycin], for which the half-life in data set [2] (setting [12]) is 13.5 h. Further, in data set [1] (setting [11]), the half-inhibitory concentration (IC50) came out at 0.0199 µM.

On to `CO[C@H]1C[C@@H]2CC[C@@H](C)[C@@](O)(O2)C(=O)C(=O)N2CCCC[C@H]2C(=O)O[C@H]([C@H](C)C[C@@H]2CC[C@@H](O)[C@H](OC)C2)CC(=O)[C@H](C)/C=C(\C)[C@@H](O)[C@@H](OC)C(=O)[C@H](C)C[C@H](C)/C=C/C=C/C=C/1C` [rapamycin], for which the “inhibition of formation of IgE-like antibodies” value in data set [4] is recorded as “effectively inhibited”. For the same compound, in data set [5], the “effect in experimental allergic encephalomyelitis model” value is “effective”. Further, the “half life in stability test” value in data set [2] (0.1M phosphate buffer, pH 7.4, 37° C.) lay in the range of 12 to 13 h. Moreover, in data set [2] (setting [12]), the half-life was 12 to 13 h. Also, the “effect in insulin dependent diabetes mellitus” value in data set [6] is “useful in preventing or treating”. For the same compound, the “effect in systemic lupus erythematosus” value in [7] is on record as “useful in preventing or treating”. Also, in data set [1] (Mus musculus, 72 h), the IC50 fell in the range of 0.0004 to 0.0094 µM. Further, in [8], the “effect on smooth muscle cell proliferation and intimal thickening” value is on record as “useful in preventing or treating”. In addition, in data set [9], the “effect in adjuvant arthritis model” value is recorded as “effective”. Besides, the “Skin Graft (days), mean graft survival time” value in [3] (4 mg/kg) amounted to 12.01 ± 0.26 days. In addition, the antitumor activity result in [10] was “antitumor activity”. Further, in the data set with Candida albicans, the antifungal activity result was “antifungal activity, particularly against Candida albicans, both in vitro and in vivo”.
